# Measurements as given in patent US8710233B2 (Gruenenthal GmbH, priority 2005, dated 2014).
# pIC50, pKi: −log10 of the molar value. Like-named read-outs stand apart in the source and are kept apart here.
# How the values were obtained:
# Assay type in all cases: cell-based
# [1] = molecular target: T1, vanilloid receptor 1 (VR1/TRPV1) of the rat species (Rattus norvegicus, UniProt O35433); experiment: FLIPR Ca2+ influx assay on rat dorsal root ganglia cells (pharmacological method I)
# T1 construct: The spinal column is removed from decapitated rats; from tissue; host or cells: primary cells dissociated from rat dorsal root ganglia
# T1 sequence (O35433 whole entry): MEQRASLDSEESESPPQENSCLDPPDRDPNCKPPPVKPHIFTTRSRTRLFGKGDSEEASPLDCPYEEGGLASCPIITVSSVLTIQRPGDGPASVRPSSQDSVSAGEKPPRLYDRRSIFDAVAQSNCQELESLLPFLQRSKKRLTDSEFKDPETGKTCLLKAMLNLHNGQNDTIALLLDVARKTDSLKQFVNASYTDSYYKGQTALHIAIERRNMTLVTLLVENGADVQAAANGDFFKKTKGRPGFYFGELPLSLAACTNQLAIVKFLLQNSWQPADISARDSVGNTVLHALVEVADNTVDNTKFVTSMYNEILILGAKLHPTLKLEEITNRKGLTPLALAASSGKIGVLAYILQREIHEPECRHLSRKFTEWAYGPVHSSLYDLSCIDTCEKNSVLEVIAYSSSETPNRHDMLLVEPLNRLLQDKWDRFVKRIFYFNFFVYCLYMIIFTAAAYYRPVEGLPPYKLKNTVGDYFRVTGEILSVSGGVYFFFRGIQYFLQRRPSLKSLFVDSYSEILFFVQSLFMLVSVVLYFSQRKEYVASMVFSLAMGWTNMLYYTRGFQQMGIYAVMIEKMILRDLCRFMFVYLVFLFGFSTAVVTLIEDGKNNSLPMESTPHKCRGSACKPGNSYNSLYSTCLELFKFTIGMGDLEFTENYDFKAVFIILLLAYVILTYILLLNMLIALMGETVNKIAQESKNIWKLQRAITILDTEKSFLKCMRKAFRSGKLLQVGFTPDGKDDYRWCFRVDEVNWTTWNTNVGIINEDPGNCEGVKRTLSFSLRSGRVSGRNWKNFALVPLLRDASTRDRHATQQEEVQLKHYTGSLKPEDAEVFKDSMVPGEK
# Method in brief: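 Primary rat dorsal root ganglion cells loaded with 2 μM Fluo-4, Ca2+ influx read on FLIPR as peak fluorescence. Triplicates, at least 3 independent experiments.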
# vanilloid receptor (VR1) = molecular target: T2, vanilloid receptor (VR1) (Homo sapiens, UniProt Q8NER1); experiment: FLIPR Ca2+ influx assay on CHO K1 cells transfected with the VR1 gene (pharmacological method II)
# T2 construct: expressed in transfected cells; host or cells: CHO K1 cells (ECACC), stably transfected
# T2 sequence (Q8NER1 whole entry): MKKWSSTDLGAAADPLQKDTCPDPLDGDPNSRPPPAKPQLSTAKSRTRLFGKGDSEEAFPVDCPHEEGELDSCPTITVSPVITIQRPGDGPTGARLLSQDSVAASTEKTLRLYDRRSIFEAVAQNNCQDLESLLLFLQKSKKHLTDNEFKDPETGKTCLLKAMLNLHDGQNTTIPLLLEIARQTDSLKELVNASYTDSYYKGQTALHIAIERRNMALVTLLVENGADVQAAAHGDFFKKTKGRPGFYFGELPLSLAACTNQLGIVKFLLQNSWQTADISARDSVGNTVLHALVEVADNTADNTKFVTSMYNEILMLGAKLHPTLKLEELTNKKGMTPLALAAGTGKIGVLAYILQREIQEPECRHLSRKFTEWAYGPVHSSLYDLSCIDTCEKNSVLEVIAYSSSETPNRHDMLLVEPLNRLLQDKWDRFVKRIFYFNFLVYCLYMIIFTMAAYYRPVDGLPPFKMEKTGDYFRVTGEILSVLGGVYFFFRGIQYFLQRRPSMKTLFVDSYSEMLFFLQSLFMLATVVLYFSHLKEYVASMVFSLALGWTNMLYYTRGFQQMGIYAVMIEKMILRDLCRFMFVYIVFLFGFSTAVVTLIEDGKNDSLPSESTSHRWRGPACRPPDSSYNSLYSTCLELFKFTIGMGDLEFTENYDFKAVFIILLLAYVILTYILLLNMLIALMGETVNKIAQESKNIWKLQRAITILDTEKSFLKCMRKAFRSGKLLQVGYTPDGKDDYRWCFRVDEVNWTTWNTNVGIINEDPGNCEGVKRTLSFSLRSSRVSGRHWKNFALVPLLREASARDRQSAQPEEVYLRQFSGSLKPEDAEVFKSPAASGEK
# VR1/TRPV1 receptor = VR1/TRPV1 receptor (Homo sapiens, UniProt Q8NER1); experiment: IC50 (human) after pH stimulus
# VR1/TRPV1 receptor, sequence (Q8NER1 whole entry): as above
# [2] = Table 2, displacement of capsaicin (100 nM), Cheng-Prusoff, read-out: Ki (rat)
# [3] = Table 2, displacement of capsaicin (100 nM), Cheng-Prusoff, read-out: Ki (human)
# [4] = Ki (rat) Cap., table 4, capsaicin
# [5] = table 4, capsaicin, read-out: Ki (human) Cap.
# [6] = table 4, capsaicin, read-out: Ki (rat) Cap.
# [7] = @ 1 μM, ne = no effect, read-out: inhibition in percent, IC50 (human) after pH stimulus
# [8] = read-out: inhibition in percent, IC50 (human) after pH stimulus
SMILES,pKi (vanilloid receptor (VR1); [5]),pIC50 (VR1/TRPV1 receptor; table 4),"pKi [1, 6]",also measured
"CC(C(=O)NCc1ccc(C(F)(F)F)nc1N1CCN(Cc2ccccc2)CC1)c1ccc(NS(C)(=O)=O)c(F)c1 (stereo not drawn) [Example 73, N-((2-(4-benzylpiperazin-1-yl)-6-(trifluoromethyl)pyridin-3-yl)methyl)-2-(3-fluoro-4-(methylsulfonamido)phenyl)propanamide]",–,–,–,"pKi [1, 2]: 8.18; pKi (vanilloid receptor (VR1); [3]): 8.06; pIC50 (VR1/TRPV1 receptor; Table 2): 6.20"
"CCOc1nc(C(F)(F)F)ccc1CNC(=O)C(C)c1ccc(NS(C)(=O)=O)c(F)c1 (stereo not drawn) [Example 163, N-(2-ethoxy-6-trifluoromethyl-pyridin-3-ylmethyl)-2-(3-fluoro-4-methylsulfonamido-phenyl)-propionamide]",7.90,6.56,–,"pKi [1, 4]: 8.07"
"CCCCOc1nc(C(C)(C)C)ccc1CNC(=O)C(C)c1ccc(NS(C)(=O)=O)c(F)c1 (stereo not drawn) [Example 235, N-(2-butoxy-6-tert-butyl-pyridin-3-ylmethyl)-2-(3-fluoro-4-methylsulfonamido-phenyl)-propionamide]",9.05,7.26,9.22,–
CC(C(=O)NCc1ccc(C(F)(F)F)nc1-c1ccc(F)c(Cl)c1)c1ccc(NS(C)(=O)=O)c(F)c1 (stereo not drawn) [Example 118],9.70,8.12,9.70,–
"CC(C(=O)NCc1ccc(C(F)(F)F)nc1Br)c1ccc(NS(C)(=O)=O)c(F)c1 (stereo not drawn) [Example 6, N-((2-bromo-6-(trifluoromethyl)pyridin-3-yl)methyl)-2-(3-fluoro-4-(methylsulfonamido)phenyl)propanamide]",–,–,–,"pKi [1, 2]: 7.02; pKi (vanilloid receptor (VR1); [3]): 6.77; pIC50 (VR1/TRPV1 receptor; Table 2): 5.58"
"CCCCCOc1cc(C(C)(C)C)ccc1CNC(=O)C(C)c1ccc(NS(C)(=O)=O)c(F)c1 (stereo not drawn) [Example 153, N-(4-tert-butyl-2-pentyloxy-benzyl)-2-(3-fluoro-4-methylsulfonamido-phenyl)-propionamide]",8.66,7.03,9.15,–
"CC(=O)OC1CCN(c2nc(C(F)(F)F)ccc2CNC(=O)C(C)c2ccc(NS(C)(=O)=O)c(F)c2)CC1 (stereo not drawn) [Example 158, acetic acid 3′-{[2-(3-fluoro-4-methylsulfonamido-phenyl)-propionylamino]-methyl}-6′-trifluoromethyl-3,4,5,6-tetrahydro-2H-[1,2′]bipyridinyl-4-yl ester]",8.40,6.86,7.90,–
"CC(C(=O)NCc1ccc(C(F)(F)F)nc1OC1CCC1)c1ccc(NS(C)(=O)=O)c(F)c1 (stereo not drawn) [Example 156, N-(2-cyclobutoxy-6-trifluoromethyl-pyridin-3-ylmethyl)-2-(3-fluoro-4-methylsulfonamido-phenyl)-propionamide]",8.85,7.16,–,"pKi [1, 4]: 8.77"
"CC(C(=O)NCc1ccc(C(F)(F)F)cc1OC1CCCC1)c1ccc(NS(C)(=O)=O)c(F)c1 (stereo not drawn) [Example 42, N-(2-(cyclopentyloxy)-4-(trifluoromethyl)benzyl)-2-(3-fluoro-4-(methylsulfonamido)phenyl)propanamide]",9.22,7.59,9.30,–
"CCN(CC)c1nc(C(F)(F)F)ccc1CNC(=O)C(C)c1ccc(NS(C)(=O)=O)c(F)c1 (stereo not drawn) [Example 15, N-((2-(diethylamino)-6-(trifluoromethyl)pyridin-3-yl)methyl)-2-(3-fluoro-4-(methylsulfonamido)phenyl)propanamide]",8.46,6.83,7.92,–
"Cc1ccc(COc2nc(C(F)(F)F)ccc2CNC(=O)C(C)c2ccc(NS(C)(=O)=O)c(F)c2)cc1 (stereo not drawn) [Example 172, 2-(3-fluoro-4-methylsulfonamido-phenyl)-N-[2-(4-methyl-benzyloxy)-6-trifluoromethyl-pyridin-3-ylmethyl]-propionamide]",8.82,7.28,9.40,–
"CCCCOc1cc(C(F)(F)F)ccc1CNC(=O)C(C)c1ccc(NS(C)(=O)=O)c(F)c1 (stereo not drawn) [Example 40, N-(2-butoxy-4-(trifluoromethyl)benzyl)-2-(3-fluoro-4-(methylsulfonamido)-phenyl)propanamide]",9.00,7.32,9.40,–
"CC(C(=O)NCc1ccc(C(F)(F)F)nc1C=Cc1ccccc1)c1ccc(NS(C)(=O)=O)c(F)c1 (stereo not drawn) [Example 191, 2-(3-fluoro-4-(methylsulfonamido)phenyl)-N-((2-styryl-6-(trifluoromethyl)pyridin-3-yl)methyl)propanamide]",8.66,7.07,8.70,–
"CC(C(=O)NCc1ccc(C(F)(F)F)nc1N1CCN(C)CC1)c1ccc(NS(C)(=O)=O)c(F)c1 (stereo not drawn) [Example 134, 2-(3-fluoro-4-methylsulfonamido-phenyl)-N-[2-(4-methyl-piperazin-1-yl)-6-trifluoromethyl-pyridin-3-ylmethyl]-propionamide]",6.84,–,6.47,"inhibition at 25 µM (VR1/TRPV1 receptor; @ 25 μM, read-out: inhibition in percent, IC50 (human) after pH stimulus): 69%"
"CC(C(=O)NCc1ccc(C(F)(F)F)nc1N1CCN(c2ccncc2)CC1)c1ccc(NS(C)(=O)=O)c(F)c1 (stereo not drawn) [Example 176, 2-(3-fluoro-4-methylsulfonamido-phenyl)-N-[2-(4-pyridin-4-yl-piperazin-1-yl)-6-trifluoromethyl-pyridin-3-ylmethyl]-propionamide]",–,–,–,"inhibition at 10 µM ([1]; @ 10 μM, read-out: inhibition in percent, Ki (rat) Cap.): 60%; inhibition at 10 µM (vanilloid receptor (VR1); CHO-K1, @ 10 μM, read-out: inhibition in percent, Ki (human) Cap.): 63%; inhibition at 1 µM (VR1/TRPV1 receptor; [7]): 13%; inhibition at 10 µM (VR1/TRPV1 receptor; [8]): 43%"

# Further lines, with some results ahead:
pKi (vanilloid receptor (VR1); [5]),pIC50 (VR1/TRPV1 receptor; table 4),"pKi [1, 6]",SMILES,also measured
8.68,–,8.49,"CC(C(=O)NCc1ccc(C(F)(F)F)nc1N1CCN(c2ncccc2Cl)CC1)c1ccc(NS(C)(=O)=O)c(F)c1 (stereo not drawn) [Example 193, N-{2-[4-(3-chloro-pyridin-2-yl)-piperazin-1-yl]-6-trifluoromethyl-pyridin-3-ylmethyl}-2-(3-fluoro-4-methylsulfonamido-phenyl)-propionamide]",inhibition at 1 µM (VR1/TRPV1 receptor; [7]): 69%
8.49,7.18,–,"CC(C(=O)NCc1ccc(C(F)(F)F)nc1OCc1ccc(C(F)(F)F)cc1)c1ccc(NS(C)(=O)=O)c(F)c1 (stereo not drawn) [Example 206, 2-(3-fluoro-4-methylsulfonamido-phenyl)-N-[6-trifluoromethyl-2-(4-trifluoromethyl-benzyloxy)-pyridin-3-ylmethyl]-propionamide]","pKi [1, 4]: 9.15"
8.89,7.86,9.40,"CC(C(=O)NCc1ccc(C(F)(F)F)cc1N1CCC(C)(C)CC1)c1ccc(NS(C)(=O)=O)c(F)c1 (stereo not drawn) [Example 218, N-[2-(4,4-dimethyl-piperidin-1-yl)-4-trifluoromethyl-benzyl]-2-(3-fluoro-4-methylsulfonamido-phenyl)-propionamide]",–
8.57,–,8.85,"CCCCCCOc1nc(C(C)(C)C)ccc1CNC(=O)C(C)c1ccc(NS(C)(=O)=O)c(F)c1 (stereo not drawn) [Example 236, N-(6-tert-butyl-2-hexyloxy-pyridin-3-ylmethyl)-2-(3-fluoro-4-methylsulfonamido-phenyl)-propionamide]",inhibition at 1 µM (VR1/TRPV1 receptor; [7]): 76%; inhibition at 10 µM (VR1/TRPV1 receptor; [8]): 69%
9.22,7.80,9.05,"Cc1ccc(CCc2nc(C(F)(F)F)ccc2CNC(=O)C(C)c2ccc(NS(C)(=O)=O)c(F)c2)cc1 (stereo not drawn) [Example 264, 2-(3-fluoro-4-methylsulfonamido-phenyl)-N-[2-(2-p-tolyl-ethyl)-6-trifluoromethyl-pyridin-3-ylmethyl]-propionamide]",–
8.38,–,8.44,"CC(C(=O)NCc1ccc(C(F)(F)F)nc1N1CCN(c2ncccc2C(F)(F)F)CC1)c1ccc(NS(C)(=O)=O)c(F)c1 (stereo not drawn) [Example 212, 2-(3-fluoro-4-methylsulfonamido-phenyl)-N-{6-trifluoromethyl-2-[4-(3-trifluoromethyl-pyridin-2-yl)-piperazin-1-yl]-pyridin-3-ylmethyl}-propionamide]","inhibition at 0.1 µM (VR1/TRPV1 receptor; @ 0.1 μM, read-out: inhibition in percent, IC50 (human) after pH stimulus): 11%; inhibition at 1 µM (VR1/TRPV1 receptor; [7]): 33%"
7.38,–,7.39,"CC1CCN(c2nc(C(F)(F)F)ccc2CNC(=O)C(C)c2ccc(NS(=O)(=O)N(C)C)c(F)c2)CC1 (stereo not drawn) [Example 288, 2-(4-dimethylaminsulfonylamino-3-fluoro-phenyl)-N-(4-methyl-6′-trifluoromethyl-3,4,5,6-tetrahydro-2H-[1,2′]bipyridinyl-3′-ylmethyl)-propionamide]","inhibition in percent, IC50 (human) after pH stimulus (VR1/TRPV1 receptor; @ 1 μM, ne = no effect): ne @ 1 μM"
8.48,7.42,8.62,"Cc1ccc(N2CCN(c3nc(C(F)(F)F)ccc3CNC(=O)C(C)c3ccc(NS(C)(=O)=O)c(F)c3)CC2)cc1 (stereo not drawn) [Example 219, 2-(3-fluoro-4-methylsulfonamido-phenyl)-N-[2-(4-p-tolyl-piperazin-1-yl)-6-trifluoromethyl-pyridin-3-ylmethyl]-propionamide]",–
8.42,6.55,8.06,"CC(C(=O)NCc1ccc(C(F)(F)F)nc1N1CCC2(CC1)CC(C(C)(C)C)=NO2)c1ccc(NS(C)(=O)=O)c(F)c1 (stereo not drawn) [Example 251, N-[2-(3-tert-butyl-1-oxa-2,8-diaza-spiro[4.5]dec-2-en-8-yl)-6-trifluoromethyl-pyridin-3-ylmethyl]-2-(3-fluoro-4-methylsulfonamido-phenyl)-propionamide]",–
